Test results as given in ChEMBL document CHEMBL1909046, “DrugMatrix in vitro pharmacology data”.

What was measured:
[1] = target: Beta-1 adrenergic receptor (Homo sapiens, UniProt P08588); test: DRUGMATRIX: Adrenergic beta1 radioligand binding (ligand: [125I] Cyanopindolol); format: cell membranes, CHO-K1, Membrane; settings: cho-k1; Not Active = under 50% inhibition at 10 µM
[2] = DRUGMATRIX: Calcium Channel Type L, Benzothiazepine radioligand binding (ligand: [3H] Diltiazem); format: cell membranes, Rattus norvegicus, Wistar, Brain, Membrane; settings: Not Active = under 50% inhibition at 10 µM
[3] = target: T1, C-X-C chemokine receptor type 2 (Homo sapiens, UniProt P25025); format: cell membranes, Membrane; settings: cho-k1; further: in other assays of this panel Not Active means under 50% inhibition at 10 µM
T1 sequence (P25025 whole entry): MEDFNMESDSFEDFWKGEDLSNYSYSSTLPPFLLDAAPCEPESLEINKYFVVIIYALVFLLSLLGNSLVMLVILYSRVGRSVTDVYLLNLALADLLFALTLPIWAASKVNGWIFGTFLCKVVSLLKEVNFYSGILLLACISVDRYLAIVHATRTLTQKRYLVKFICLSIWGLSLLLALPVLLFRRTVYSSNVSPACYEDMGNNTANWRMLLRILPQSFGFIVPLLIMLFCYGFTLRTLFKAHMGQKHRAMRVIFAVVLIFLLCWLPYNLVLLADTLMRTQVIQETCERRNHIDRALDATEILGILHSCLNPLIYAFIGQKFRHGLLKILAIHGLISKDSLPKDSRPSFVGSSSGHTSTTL

[4] = target: T2, Cysteinyl leukotriene receptor 1 (Homo sapiens, UniProt Q9Y271); format: cell membranes, Membrane; settings: cho-k1; further: in other assays of this panel Not Active means under 50% inhibition at 10 µM
T2 sequence (Q9Y271 whole entry): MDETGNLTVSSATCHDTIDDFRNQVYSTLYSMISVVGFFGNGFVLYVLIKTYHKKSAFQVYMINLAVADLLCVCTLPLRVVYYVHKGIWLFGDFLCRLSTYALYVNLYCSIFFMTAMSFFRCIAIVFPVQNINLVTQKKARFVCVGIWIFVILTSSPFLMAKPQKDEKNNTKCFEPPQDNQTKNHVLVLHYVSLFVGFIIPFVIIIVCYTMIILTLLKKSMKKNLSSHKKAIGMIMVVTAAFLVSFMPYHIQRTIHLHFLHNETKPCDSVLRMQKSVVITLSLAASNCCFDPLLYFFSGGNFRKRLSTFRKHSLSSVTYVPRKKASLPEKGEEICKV

[5] = target: T3, Cytochrome P450 2A6 (Homo sapiens, UniProt P11509); settings: bti-tn-5b1-4; further: in other assays of this panel Not Active means under 50% inhibition at 10 µM
T3 sequence (P11509 whole entry): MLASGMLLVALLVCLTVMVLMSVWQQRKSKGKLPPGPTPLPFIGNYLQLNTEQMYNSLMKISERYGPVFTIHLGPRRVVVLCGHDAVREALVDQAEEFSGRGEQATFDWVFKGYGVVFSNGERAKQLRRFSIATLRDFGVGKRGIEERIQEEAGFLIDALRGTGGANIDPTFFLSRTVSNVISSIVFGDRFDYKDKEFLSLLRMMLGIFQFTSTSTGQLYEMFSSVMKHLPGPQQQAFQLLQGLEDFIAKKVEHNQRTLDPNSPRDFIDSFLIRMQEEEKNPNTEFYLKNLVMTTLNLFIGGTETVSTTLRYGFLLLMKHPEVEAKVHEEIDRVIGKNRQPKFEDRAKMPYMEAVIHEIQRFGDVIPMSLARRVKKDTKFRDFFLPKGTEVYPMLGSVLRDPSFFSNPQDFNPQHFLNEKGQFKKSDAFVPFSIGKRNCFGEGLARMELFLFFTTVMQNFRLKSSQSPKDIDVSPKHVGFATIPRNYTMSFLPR

Beta-1 adrenergic receptor, sequence (P08588 whole entry): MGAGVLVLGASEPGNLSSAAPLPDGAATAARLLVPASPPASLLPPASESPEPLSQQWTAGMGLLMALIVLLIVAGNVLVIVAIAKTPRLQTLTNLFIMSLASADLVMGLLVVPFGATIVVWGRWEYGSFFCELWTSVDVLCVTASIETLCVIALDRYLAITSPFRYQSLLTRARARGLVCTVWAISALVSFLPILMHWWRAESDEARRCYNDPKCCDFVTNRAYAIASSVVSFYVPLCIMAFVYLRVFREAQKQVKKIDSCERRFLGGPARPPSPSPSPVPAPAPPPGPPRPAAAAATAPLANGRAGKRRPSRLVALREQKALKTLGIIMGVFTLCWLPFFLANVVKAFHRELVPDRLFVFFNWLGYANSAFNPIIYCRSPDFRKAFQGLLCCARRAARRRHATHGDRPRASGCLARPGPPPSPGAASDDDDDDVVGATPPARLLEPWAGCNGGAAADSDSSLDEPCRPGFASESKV

With `COc1cc([C@@H]2c3cc4c(cc3[C@@H](O[C@@H]3O[C@@H]5CO[C@@H](C)O[C@H]5[C@H](O)[C@H]3O)[C@H]3COC(=O)[C@H]23)OCO4)cc(OC)c1O` [ETOPOSIDE] the IC50 [1] was “Not Active”, the IC50 [2] was “Not Active” and the Ki [2] was “Not Active”. The IC50 [3] was “Not Active” and the IC50 [4] was “Not Active”.

For `CC(C)(C)NC(=O)[C@H]1CC[C@H]2[C@@H]3CC[C@H]4NC(=O)C=C[C@]4(C)[C@H]3CC[C@]12C` [FINASTERIDE], the IC50 [1] was “Not Active”, the IC50 [2] was “Not Active” and the Ki [2] was “Not Active”. For the same molecule, the IC50 [3] was “Not Active”, the IC50 [4] was “Not Active” and the IC50 [5] was “Not Active”. For the same molecule, the Ki [5] was “Not Active”.

In the case of `COc1ccc2c3c1O[C@H]1C[C@@H](O)C=C[C@@]31CCN(C)C2` [GALANTAMINE], the IC50 [1] is reported as “Not Active”, the IC50 [2] is reported as “Not Active” and the Ki [2] is reported as “Not Active”. The IC50 [3] was “Not Active” and the IC50 [4] was “Not Active”.

For `CC(C)=CCC/C(C)=C/CO` [GERANIOL], the IC50 [1] was “Not Active”, the IC50 [2] was “Not Active” and the Ki [2] was “Not Active”. The IC50 [3] was “Not Active” and the IC50 [4] was “Not Active”.

In the case of `Oc1c(Cl)cc(Cl)c(Cl)c1Cc1c(O)c(Cl)cc(Cl)c1Cl` [HEXACHLOROPHENE], the IC50 [1] is reported as “Not Active”, the IC50 [2] is reported as “Not Active” and the Ki [2] is reported as “Not Active”. The IC50 [3] was “Not Active”, the IC50 [4] was “Not Active” and the IC50 [5] was “Not Active”. For the same molecule, the Ki [5] was “Not Active”.

For `CC(=O)[C@@]1(O)CC[C@H]2[C@@H]3CCC4=CC(=O)CC[C@]4(C)[C@H]3CC[C@@]21C` [HYDROXYPROGESTERONE], the IC50 [1] was “Not Active”, the IC50 [2] was “Not Active” and the Ki [2] was “Not Active”. The IC50 [3] was “Not Active” and the IC50 [4] was “Not Active”.

With `COC1=C(OC)C(=O)C(CCCCCCCCCCO)=C(C)C1=O` [IDEBENONE] the IC50 [1] was “Not Active”, the IC50 [2] was “Not Active” and the Ki [2] was “Not Active”. For the same molecule, the IC50 [3] was “Not Active”, the IC50 [4] was “Not Active” and the IC50 [5] was “Not Active”. For the same molecule, the Ki [5] was “Not Active”.

With `Cc1c(OCC(F)(F)F)ccnc1C[S+]([O-])c1nc2ccccc2[nH]1` (centres undefined) [LANSOPRAZOLE] the IC50 [1] was “Not Active”, the IC50 [2] was “Not Active” and the Ki [2] was “Not Active”. The IC50 [3] was “Not Active”, the IC50 [4] was “Not Active” and the IC50 [5] was “Not Active”. The Ki [5] was “Not Active”.

For `COc1ccc2[nH]cc(CCNC(C)=O)c2c1` [MELATONIN], the IC50 [1] was “Not Active”, the IC50 [2] was “Not Active” and the Ki [2] was “Not Active”. The IC50 [3] was “Not Active”, the IC50 [4] was “Not Active” and the IC50 [5] was “Not Active”. The Ki [5] was “Not Active”.

For `O=C(N/N=C/c1ccc([N+](=O)[O-])o1)c1cc([N+](=O)[O-])cc([N+](=O)[O-])c1O` [NIFURSOL], the IC50 [1] was “Not Active”, the IC50 [2] was “Not Active” and the Ki [2] was “Not Active”. The IC50 [3] was “Not Active”, the IC50 [4] was “Not Active” and the IC50 [5] was “Not Active”. For the same molecule, the Ki [5] was “Not Active”.

For `CC(=O)O[C@H]1C(=O)[C@@]2(C)[C@H]([C@H](OC(=O)c3ccccc3)[C@]3(O)C[C@H](OC(=O)[C@H](O)[C@@H](NC(=O)c4ccccc4)c4ccccc4)C(C)=C1C3(C)C)[C@]1(OC(C)=O)CO[C@@H]1C[C@@H]2O` [PACLITAXEL], the IC50 [1] was “Not Active”, the IC50 [2] was “Not Active” and the Ki [2] was “Not Active”. For the same molecule, the IC50 [3] was “Not Active”, the IC50 [4] was “Not Active” and the IC50 [5] was “Not Active”. The Ki [5] was “Not Active”.

In the case of `CC(C)NCC(O)COc1cccc2[nH]ccc12` (centres undefined) [PINDOLOL], the IC50 [2] is reported as “Not Active”, the Ki [2] is reported as “Not Active” and the IC50 [3] is reported as “Not Active”. For the same molecule, the IC50 [4] was “Not Active”.

For `CCCNCC(O)COc1ccccc1C(=O)CCc1ccccc1` (centres undefined) [PROPAFENONE], the IC50 ([2]; read-out: IC50) was 775 nM, the Ki ([2]; read-out: Ki) was 689 nM and the IC50 [3] was “Not Active”. For the same molecule, the IC50 [4] was “Not Active”, the IC50 [5] was “Not Active” and the Ki [5] was “Not Active”.

With `CC(C)c1cccc(C(C)C)c1O` [PROPOFOL] the IC50 [1] was “Not Active”, the IC50 [2] was “Not Active” and the Ki [2] was “Not Active”. The IC50 [3] was “Not Active” and the IC50 [4] was “Not Active”.
